From patent publication US20230183193A1, “4-DIFLUOROMETHYL BENZOYL AMIDES WITH HERBICIDAL ACTION” (BAYER CROPSCIENCE AKTIENGESELLSCHAFT, priority 2017, published 2023)

What was measured:
Type in all cases: in vivo
Abutilon theophrasti [1] = assay: Post-emergence herbicidal action, ABUTH; conditions: 80 g/ha
Method in brief: (§1)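 Visual percent activity relative to untreated controls, assessed about 3 weeks after foliar treatment, where 0% equals control growth and 100% equals death. Compounds, as wettable powders or emulsion concentrates, are sprayed onto one-leaf-stage plants in sandy loam.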

Veronica persica [2] = assay: Pre-emergence herbicidal action, VERPE; conditions: comparison with WO 2011035874, Table H
Source text: (§2) 1. Pre-Emergence Herbicidal Action Against Harmful Plants Seeds of monocotyledonous and dicotyledonous weed plants and crop plants are laid out in sandy loam soil in wood-fiber pots and covered with soil. The compounds of the invention, formulated in the form of wettable powders (WP) or as emulsion concentrates (EC), are then applied to the surface of the covering soil in the form of an aqueous suspension or emulsion at a water application rate equating to […], with addition of 0.2% wetting agent. After the treatment, the pots are placed in a greenhouse and kept under good growth conditions for the trial plants. The damage to the test plants is scored visually after a test period of 3 weeks by comparison with untreated controls (herbicidal activity in percent (%): 100% activity=the plants have died, 0% activity=like control plants).
(§3) For comparison, the herbicidal activity of numerous compounds according to the invention was tested with the structurally closest compounds known from the documents WO 2011/035874, WO 2012/028579 and WO 2012/126932, by the pre- and post-emergence method.

Stellaria media [3] = assay: Post-emergence herbicidal action, STEME; conditions: 80 g/ha
Method in brief: as §1

Alopecurus myosuroides = assay: Pre-emergence herbicidal action, ALOMY; conditions: comparison with WO 2011035874, Table G
Method in brief: (§4)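 Percent herbicidal activity rated by eye 3 weeks after pre-emergence soil-surface application, compared with untreated pots. Seeds sat under sandy loam; sprays carried 0.2% wetting agent.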

Abutilon theophrasti [4] = assay: Pre-emergence herbicidal action, ABUTH; conditions: for Herbicidal efficacy against ABUTH: comparison with WO 2011035874, Table G
Method in brief: as §4

Viola tricolor [5] = assay: Post-emergence herbicidal action, VIOTR; conditions: 80 g/ha
Method in brief: as §1

Cyperus serotinus = assay: Pre-emergence herbicidal action, CYPES; conditions: for Herbicidal efficacy against CYPES: comparison with WO 2011035874, Table G
Method in brief: as §4

ECHCG = assay: Pre-emergence herbicidal action, ECHCG; conditions: comparison with WO 2011035874, Table G
Source text: as §2

Viola tricolor [6] = assay: Pre-emergence herbicidal action, VIOTR; conditions: for Herbicidal efficacy against VIOTR: comparison with WO 2011035874, Table H
Method in brief: as §4

Polygonum convolvulus = assay: Pre-emergence herbicidal action, POLCO; conditions: comparison with WO 2011035874, Table H
Source text: as §2, §3

Amaranthus retroflexus [7] = assay: Post-emergence herbicidal action, AMARE; conditions: 80 g/ha; for Herbicidal efficacy against AMARE: comparison with WO 2011035874, Table E
Method in brief: as §1

Stellaria media [8] = assay: Pre-emergence herbicidal action, STEME; conditions: for Herbicidal efficacy against STEME: comparison with WO 2011035874, Table H
Method in brief: as §4

Avena fatua = assay: Pre-emergence herbicidal action, AVEFA; conditions: comparison with WO 2011035874, Table G
Method in brief: as §4

Amaranthus retroflexus [9] = assay: Pre-emergence herbicidal action, AMARE; conditions: for Herbicidal efficacy against AMARE: comparison with WO 2011035874, Table H
Method in brief: as §4

Matricaria inodora [10] = assay: Post-emergence herbicidal action, MATIN; conditions: 80 g/ha
Experimental: (§5) Seeds of monocotyledonous and dicotyledonous weed and crop plants are laid out in sandy loam soil in wood-fiber pots, covered with soil and cultivated in a greenhouse under good growth conditions. 2 to 3 weeks after sowing, the test plants are treated at the one-leaf stage. The compounds of the invention, formulated in the form of wettable powders (WP) or as emulsion concentrates (EC), are then sprayed onto the green parts of the plants in the form of an aqueous suspension or emulsion at a water application rate equating to […], with addition of 0.2% wetting agent. After the test plants have been left to stand in the greenhouse under optimal growth conditions for about 3 weeks, the action of the preparations is assessed visually in comparison to untreated controls (herbicidal action in percent (%): 100% activity=the plants have died, 0% activity=like control plants). […] At the same time, inventive compounds leave Gramineae crops such as barley, wheat, rye, millet/sorghum, corn or rice virtually undamaged when applied post-emergence, even at high active compound dosages. In addition, some substances are also harmless to dicotyledonous crops such as soya, cotton, oilseed rape, sugar beet or potatoes. Some of the compounds according to the invention have high selectivity and are therefore suitable for controlling unwanted vegetation in agricultural crops by the post-emergence method. The data of Tables C and D below illustrate, in an exemplary manner, the […] herbicidal action of the compounds according to the invention, the herbicidal activity being stated in percent.
as §3

Setaria viridis = assay: Pre-emergence herbicidal action, SETVI; conditions: for Herbicidal efficacy against SETVI: comparison with WO 2011035874, Table G
Method in brief: as §4

Pharbitis purpureum = assay: Post-emergence herbicidal action, PHBPU; conditions: 80 g/ha
Method in brief: as §1

Veronica persica [11] = assay: Post-emergence herbicidal action, VERPE; conditions: 80 g/ha, comparison with WO 2011035874, Table E
Experimental: as §5, §3

Matricaria inodora [12] = assay: Pre-emergence herbicidal action, MATIN; conditions: dosage 320 g/ha, scored visually after 3 weeks vs untreated controls
Method in brief: as §4

[13] = comparison with WO 2011035874, Table E
[14] = comparison with WO2011035874, Table F
[15] = dosage 320 g/ha, scored visually after 3 weeks vs untreated controls

SMILES: Cn1nnnc1NC(=O)c1ccc(C(F)F)c(S(=O)(=O)CC2CC2)c1I [Example 1-81]
- Herbicidal efficacy against ABUTH (Abutilon theophrasti [1]; [13]): 30%
- Herbicidal efficacy against VERPE (Veronica persica [2]; 80 g/ha): 70%
- Herbicidal efficacy against STEME (Stellaria media [3]; [13]): 0%
- Herbicidal efficacy against ALOMY (Alopecurus myosuroides; 80 g/ha): 0%
- Herbicidal efficacy against ABUTH (Abutilon theophrasti [4]; 80 g/ha): 20%
- Herbicidal efficacy against VIOTR (Viola tricolor [5]; [13]): 0%
- Herbicidal efficacy against CYPES (Cyperus serotinus; 80 g/ha): 0%
- Herbicidal efficacy against ECHCG (ECHCG; 80 g/ha): 10%
- Herbicidal efficacy against VIOTR (Viola tricolor [6]; 80 g/ha): 90%
- Herbicidal efficacy against POLCO (Polygonum convolvulus; 80 g/ha): 10%
- Herbicidal efficacy against AMARE (Amaranthus retroflexus [7]): 60%
- Herbicidal efficacy against STEME (Stellaria media [8]; 80 g/ha): 50%
- Herbicidal efficacy against AVEFA (Avena fatua; 80 g/ha): 40%
- Herbicidal efficacy against AMARE (Amaranthus retroflexus [9]; 80 g/ha): 60%
- Herbicidal efficacy against MATIN (Matricaria inodora [10]; [13]): 10%
- Herbicidal efficacy against SETVI (Setaria viridis; 80 g/ha): 10%
- Herbicidal efficacy against PHBPU (Pharbitis purpureum; [13]): 10%
- Herbicidal efficacy against VERPE (Veronica persica [11]): 30%

SMILES: CSc1c(C(F)F)ccc(C(=O)Nc2nonc2C)c1C [Example 5-1]
- herbicidal activity MATIN (Matricaria inodora [12]): 100%
- herbicidal activity ABUTH (Abutilon theophrasti [1]; Table D): 100%
- Herbicidal efficacy against ABUTH (Abutilon theophrasti [1]; [13]): 100%
- Herbicidal efficacy against ABUTH (Abutilon theophrasti [1]; [14]): 100%
- Herbicidal efficacy against VERPE (Veronica persica [2]; 80 g/ha): 100%
- Herbicidal efficacy against VERPE (Veronica persica [2]; 320 g/ha): 100%
- Herbicidal activity STEME (Stellaria media [3]; Table D): 100%
- Herbicidal efficacy against STEME (Stellaria media [3]; [13]): 100%
- Herbicidal efficacy against STEME (Stellaria media [3]; [14]): 100%
- Herbicidal efficacy against ALOMY (Alopecurus myosuroides; 80 g/ha): 30%
- Herbicidal efficacy against ALOMY (Alopecurus myosuroides; 320 g/ha): 40%
- Herbicidal efficacy against ABUTH (Abutilon theophrasti [4]; 80 g/ha): 100%
- Herbicidal efficacy against ABUTH (Abutilon theophrasti [4]; 320 g/ha): 100%
- herbicidal activity ABUTH (Abutilon theophrasti [4]; [15]): 100%
- herbicidal activity VIOTR (Viola tricolor [5]; Table D): 100%
- Herbicidal efficacy against VIOTR (Viola tricolor [5]; [13]): 100%
- Herbicidal efficacy against VIOTR (Viola tricolor [5]; [14]): 100%
- Herbicidal efficacy against CYPES (Cyperus serotinus; 80 g/ha): 50%
- Herbicidal efficacy against CYPES (Cyperus serotinus; 320 g/ha): 80%
- herbicidal activity CYPES (Cyperus serotinus; [15]): 80%
- Herbicidal efficacy against ECHCG (ECHCG; 80 g/ha): 80%
- Herbicidal efficacy against ECHCG (ECHCG; 320 g/ha): 100%
- Herbicidal efficacy against VIOTR (Viola tricolor [6]; 80 g/ha): 100%
- Herbicidal efficacy against VIOTR (Viola tricolor [6]; 320 g/ha): 100%
- herbicidal activity VIOTR (Viola tricolor [6]; [15]): 100%
- Herbicidal efficacy against POLCO (Polygonum convolvulus; 80 g/ha): 80%
- Herbicidal efficacy against POLCO (Polygonum convolvulus; 320 g/ha): 100%
- herbicidal activity AMARE (Amaranthus retroflexus [7]; Table D): 80%
- Herbicidal efficacy against AMARE (Amaranthus retroflexus [7]): 80%
- Herbicidal efficacy against STEME (Stellaria media [8]; 80 g/ha): 80%
- Herbicidal efficacy against STEME (Stellaria media [8]; 320 g/ha): 90%
- Herbicidal activity STEME (Stellaria media [8]; [15]): 90%
- Herbicidal efficacy against AVEFA (Avena fatua; 80 g/ha): 30%
- Herbicidal efficacy against AVEFA (Avena fatua; 320 g/ha): 60%
- Herbicidal efficacy against AMARE (Amaranthus retroflexus [9]; 80 g/ha): 100%
- Herbicidal efficacy against AMARE (Amaranthus retroflexus [9]; 320 g/ha): 100%
- herbicidal activity AMARE (Amaranthus retroflexus [9]; [15]): 100%
- Herbicidal efficacy against MATIN (Matricaria inodora [10]; [13]): 40%
- Herbicidal efficacy against MATIN (Matricaria inodora [10]; [14]): 40%
- Herbicidal efficacy against SETVI (Setaria viridis; 80 g/ha): 80%
- Herbicidal efficacy against SETVI (Setaria viridis; 320 g/ha): 100%
- herbicidal activity SETVI (Setaria viridis; [15]): 100%
- Herbicidal activity PHBPU (Pharbitis purpureum; Table D): 90%
- Herbicidal efficacy against PHBPU (Pharbitis purpureum; [13]): 90%
- Herbicidal efficacy against PHBPU (Pharbitis purpureum; [14]): 90%
- Herbicidal efficacy against VERPE (Veronica persica [11]): 100%
